{"source": "ChEMBL document CHEMBL1156960", "about": "“First synthesis of separable isomeric testosterone dimers showing differential activities on prostate cancer cells” (Bioorg Med Chem Lett, 2010)", "key": {"[1]": {"test_system": "PC-3", "assay": "Cytotoxicity against human androgen receptor negative PC3 cells after 72 hrs by MTT assay", "type": "functional, cell-based", "conditions": "PC-3, 72 h"}, "[2]": {"test_system": "LNCaP", "assay": "Cytotoxicity against human androgen receptor positive LNCAP cells after 72 hrs by MTT assay", "type": "functional, cell-based"}}, "note": "pIC50: −log10 of the molar value.", "data": [{"smiles": "C[C@]12CC[C@H]3[C@@H]([C@@H](C/C=C/C[C@H]4CC5=CC(=O)CC[C@]5(C)[C@H]5CC[C@]6(C)[C@@H](O)CC[C@H]6[C@H]45)CC4=CC(=O)CC[C@@]43C)[C@@H]1CC[C@@H]2O", "values": [{"measurement": "pIC50", "setting": "[1]", "result": 4.45}]}, {"smiles": "CC(=O)O[C@]1(C(C)=O)CC[C@H]2[C@@H]3C=C(Cl)C4=CC(=O)[C@@H]5C[C@@H]5[C@]4(C)[C@H]3CC[C@@]21C", "note": "[CYPROTERONE ACETATE]", "values": [{"measurement": "pIC50", "setting": "[1]", "result": 4.49}, {"measurement": "pIC50", "setting": "[2]", "result": 4.37}]}, {"smiles": "C[C@]12CC[C@H]3[C@@H]([C@@H](C/C=C\\C[C@H]4CC5=CC(=O)CC[C@]5(C)[C@H]5CC[C@]6(C)[C@@H](O)CC[C@H]6[C@H]45)CC4=CC(=O)CC[C@@]43C)[C@@H]1CC[C@@H]2O", "values": [{"measurement": "pIC50", "setting": "[1]", "result": 4.61}, {"measurement": "pIC50", "setting": "[2]", "result": 4.52}]}]}
